Test results taken from patent US12060349B2, “Glucosylceramide synthase inhibitors” (Genzyme Corporation, priority 2012, dated 2024).

What was measured:
[1] = test system: GM3 expression on the cell surface, B16 mouse melanoma cells; experiment: cell based phenotypic assay, cell surface GM3 by antibody mediated immunofluorescence, B16 (GM3 B16 IC50); conditions: Mus musculus, B16 mouse melanoma cells; 50% inhibition of GM3 expression on the cell surface; read-out: GM3 B16 IC50
In short: (§1)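 B16 mouse and C32 human melanoma cells; cell-surface GM3 measured by antibody-mediated immunofluorescence, giving IC50.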

B16 mouse melanoma cells = experiment: cell viability in the B16 cell-based assay (Viability, B16 IC50); conditions: Mus musculus, B16, B16 cells; concentration causing 50% cell death; values greater than 10 represent a lack of cell death; read-out: Viability, B16 IC50
In short: (§2)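 Both lines undergo the phenotypic GM3 assay, and viability is recorded from that same cell-based run.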

C32 human melanoma cells = experiment: cell viability in the C32 cell-based assay (Viability, C32 IC50); conditions: Homo sapiens, C32, C32 cells; concentration causing 50% cell death; values greater than 10 represent a lack of cell death; read-out: Viability, C32 IC50
In short: as §2

[2] = test system: GM3 expression on the cell surface, C32 human melanoma cells; experiment: cell based phenotypic assay, cell surface GM3 by antibody mediated immunofluorescence, C32 (GM3 C32 IC50); conditions: Homo sapiens, C32 human melanoma cells; 50% inhibition of GM3 expression on the cell surface; read-out: GM3 C32 IC50
In short: as §1

[3] = target: T1, glucosylceramide synthase (Homo sapiens, UniProt Q16739); experiment: microsomal assay measuring conversion of ceramide to glucosylceramide by HPLC (GCS IC50); type: biochemical; conditions: concentration causing 50% inhibition of glucosylceramide synthase activity
T1 construct: Microsomes were isolated from A375 human melanoma cells; endogenous in cells; host or cells: A375 human melanoma cells (microsomal fraction, 100,000 g pellet)
T1 sequence (Q16739 1-394): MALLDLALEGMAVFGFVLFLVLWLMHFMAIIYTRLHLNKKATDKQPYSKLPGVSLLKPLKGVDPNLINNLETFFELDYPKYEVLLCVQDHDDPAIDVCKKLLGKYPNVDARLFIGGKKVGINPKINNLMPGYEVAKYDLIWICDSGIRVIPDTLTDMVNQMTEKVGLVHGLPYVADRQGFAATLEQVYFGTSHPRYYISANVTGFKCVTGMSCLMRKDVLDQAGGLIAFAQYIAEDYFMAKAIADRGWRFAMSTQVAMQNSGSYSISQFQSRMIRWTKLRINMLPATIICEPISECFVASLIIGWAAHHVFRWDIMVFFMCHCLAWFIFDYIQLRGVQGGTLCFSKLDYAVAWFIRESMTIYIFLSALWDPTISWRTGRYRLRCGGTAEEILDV
In short: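 Microsomal preparation assayed for glucosylceramide synthase by direct HPLC measurement of ceramide conversion to glucosylceramide. GCS IC50 is the compound concentration giving 50% inhibition of enzyme activity.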

Structure (SMILES)	IC50 [1]	IC50 [2]	IC50 [3]	IC50 (B16 mouse melanoma cells)	IC50 (C32 human melanoma cells)
CC1(NC(=O)C2(F)CCN(c3nccc(-c4ccc(F)cc4)n3)CC2)CCN2CCC1CC2 (stereo not drawn) [Example 94, 4-Fluoro-1-(4-(4-fluorophenyl)pyrimidin-2-yl)-N-(4-methyl-1-azabicyclo[3.2.2]nonan-4-yl)piperidine-4-carboxamide]	14.4 nM	0.0964 nM	0.736 nM	2100 nM	46.4 nM
CC1(NC(=O)C2(F)CCN(c3nccc(-c4ccc(F)cc4)n3)CC2)CN2CCC1CC2 (stereo not drawn) [Example 95, 4-Fluoro-1-(4-(4-fluorophenyl)pyrimidin-2-yl)-N-(3-methylquinuclidin-3-yl)piperidine-4-carboxamide]	20 nM	0.0836 nM	0.585 nM	4690 nM	31.6 nM
COCc1ccc(-c2ccnc(N3CCC(C)(C(=O)NC4(C)CCN5CCC4CC5)CC3)n2)cc1 (stereo not drawn) [Example 96, 1-(4-(4-(Methoxymethyl)phenyl)pyrimidin-2-yl)-4-methyl-N-(4-methyl-1-azabicyclo[3.2.2]nonan-4-yl)piperidine-4-carboxamide]	145 nM	0.804 nM	7 nM	3390 nM	1000 nM
COCCOCc1ccc(-c2ccnc(N3CCC(C)(C(=O)NC4(C)CN5CCC4CC5)CC3)n2)cc1 (stereo not drawn) [Example 98, 1-(4-(4-((2-Methoxyethoxy)methyl)phenyl)pyrimidin-2-yl)-4-methyl-N-(3-methylquinuclidin-3-yl)piperidine-4-carboxamide]	1910 nM	8.13 nM	76.9 nM	8190 nM	1000 nM
CC1(NC(=O)C2(O)CCN(c3nccc(-c4ccc(F)cc4)n3)CC2)CCN2CCC1CC2 (stereo not drawn) [Example 99, 1-(4-(4-Fluorophenyl)pyrimidin-2-yl)-4-hydroxy-N-(4-methyl-1-azabicyclo[3.2.2]nonan-4-yl)piperidine-4-carboxamide]	12 nM	0.0552 nM	2.23 nM	3780 nM	46.4 nM
CC1(NC(=O)C2CCN(c3cc(-c4ccc(F)cc4)ccn3)CC2)CCN2CCC1CC2 (stereo not drawn) [Example 106, 1-(4-(4-Fluorophenyl)pyridin-2-yl)-N-(4-methyl-1-azabicyclo[3.2.2]nonan-4-yl)piperidine-4-carboxamide]	15.3 nM	0.095 nM	0.858 nM	6970 nM	9020 nM
CC1(NC(=O)C2CCN(c3cncc(-c4ccc(F)cc4)c3)CC2)CCN2CCC1CC2 (stereo not drawn) [Example 107, 1-(5-(4-Fluorophenyl)pyridin-3-yl)-N-(4-methyl-1-azabicyclo[3.2.2]nonan-4-yl)piperidine-4-carboxamide]	299 nM	0.935 nM	4.76 nM	≥ 10000 nM	78.5 nM
CN(C(=O)C1CCN(c2nccc(-c3ccc(F)cc3)n2)CC1)C1CN2CCC1CC2 (stereo not drawn) [Example 109, 1-(4-(4-Fluorophenyl)pyrimidin-2-yl)-N-methyl-N-(quinuclidin-3-yl)piperidine-4-carboxamide]	2230 nM	8.99 nM	40.1 nM	9530 nM	3160 nM
O=C(OC1CCN2CCC1CC2)C1CCN(c2nccc(-c3ccc(F)cc3)n2)CC1 (stereo not drawn) [Example 110, 1-Azabicyclo[3.2.2]nonan-4-yl 1-(4-(4-fluorophenyl)pyrimidin-2-yl)piperidine-4-carboxylate]	528 nM	2.39 nM	1.22 nM	3810 nM	1000 nM

Now from value to compound, other results behind:

IC50 [1]	IC50 [2]	IC50 [3]	Structure (SMILES)	IC50 (B16 mouse melanoma cells)	IC50 (C32 human melanoma cells)
285 nM	1.36 nM	13.4 nM	COCCOCc1ccc(-c2ccnc(N3CCC(C)(C(=O)NC4(C)CCN5CCC4CC5)CC3)n2)cc1 (stereo not drawn) [Example 97, 1-(4-(4-((2-Methoxyethoxy)methyl)phenyl)pyrimidin-2-yl)-4-methyl-N-(4-methyl-1-azabicyclo[3.2.2]nonan-4-yl)piperidine-4-carboxamide]	≥ 10000 nM	1000 nM
26.5 nM	0.109 nM	3.68 nM	COC1(C(=O)NC2(C)CCN3CCC2CC3)CCN(c2nccc(-c3ccc(F)cc3)n2)CC1 (stereo not drawn) [Example 100, 1-(4-(4-Fluorophenyl)pyrimidin-2-yl)-4-methoxy-N-(4-methyl-1-azabicyclo[3.2.2]nonan-4-yl)piperidine-4-carboxamide]	1900 nM	1000 nM
78.5 nM	0.436 nM	3.38 nM	COCCCOc1ccc(-c2ccnc(N3CCC(OC)(C(=O)NC4(C)CCN5CCC4CC5)CC3)n2)cc1 (stereo not drawn) [Example 101, 4-Methoxy-1-(4-(4-(3-methoxypropoxy)phenyl)pyrimidin-2-yl)-N-(4-methyl-1-azabicyclo[3.2.2]nonan-4-yl)piperidine-4-carboxamide]	2030 nM	1000 nM
92.9 nM	0.258 nM	1.03 nM	COC1(C(=O)NC2(C)CCN3CCC2CC3)CCN(c2ncc(F)c(-c3ccc(OCCF)cc3)n2)CC1 (stereo not drawn) [Example 102, 1-(5-Fluoro-4-(4-(2-fluoroethoxy)phenyl)pyrimidin-2-yl)-4-methoxy-N-(4-methyl-1-azabicyclo[3.2.2]nonan-4-yl)piperidine-4-carboxamide]	2850 nM	100 nM
73.8 nM	0.29 nM	3.65 nM	COC1(C(=O)NC2(C)CCN3CCC2CC3)CCN(c2nccc(-c3ccc(OCCF)cc3)n2)CC1 (stereo not drawn) [Example 103, 1-(4-(4-(2-Fluoroethoxy)phenyl)pyrimidin-2-yl)-4-methoxy-N-(4-methyl-1-azabicyclo[3.2.2]nonan-4-yl)piperidine-4-carboxamide]	3110 nM	316 nM
51.3 nM	3 nM	25.1 nM	COCCOc1cnc(N2CCC(C(=O)NC3(C)CCN4CCC3CC4)CC2)nc1-c1ccc(F)cc1 (stereo not drawn) [Example 104, 1-(4-(4-Fluorophenyl)-5-(2-methoxyethoxy)pyrimidin-2-yl)-N-(4-methyl-1-azabicyclo[3.2.2]nonan-4-yl)piperidine-4-carboxamide]	≥ 10000 nM	1000 nM
272 nM	2 nM	10.5 nM	COCCOc1cc(-c2ccc(F)cc2)nc(N2CCC(C(=O)NC3(C)CCN4CCC3CC4)CC2)n1 (stereo not drawn) [Example 105, 1-(4-(4-Fluorophenyl)-6-(2-methoxyethoxy)pyrimidin-2-yl)-N-(4-methyl-1-azabicyclo[3.2.2]nonan-4-yl)piperidine-4-carboxamide]	3660 nM	1000 nM
1080 nM	54.1 nM	80.8 nM	CC1(NC(=O)C2CCN(c3ccnc(-c4ccc(F)cc4)c3)CC2)CCN2CCC1CC2 (stereo not drawn) [Example 108, 1-(2-(4-Fluorophenyl)pyridin-4-yl)-N-(4-methyl-1-azabicyclo[3.2.2]nonan-4-yl)piperidine-4-carboxamide]	5650 nM	3160 nM
119 nM	0.19 nM	2 nM	COCCCOc1ccc(-c2nc(N3CC(C(=O)NC4(C)CCN5CCC4CC5)C3)ncc2F)cc1 (stereo not drawn) [Example 111, 1-(5-Fluoro-4-(4-(3-methoxypropoxy)phenyl)pyrimidin-2-yl)-N-(4-methyl-1-azabicyclo[3.2.2]nonan-4-yl)azetidine-3-carboxamide]	3650 nM	1000 nM
122 nM	0.238 nM	7.37 nM	CC1(NC(=O)C2CN(c3ncc(F)c(-c4ccc(F)cc4)n3)C2)CCN2CCC1CC2 (stereo not drawn) [Example 112, 1-(5-Fluoro-4-(4-fluorophenyl)pyrimidin-2-yl)-N-(4-methyl-1-azabicyclo[3.2.2]nonan-4-yl)azetidine-3-carboxamide]	7240 nM	316 nM
546 nM	0.884 nM	8.31 nM	CC1(NC(=O)C2CN(c3nccc(-c4ccc(F)cc4)n3)C2)CCN2CCC1CC2 (stereo not drawn) [Example 113, 1-(4-(4-Fluorophenyl)pyrimidin-2-yl)-N-(4-methyl-1-azabicyclo[3.2.2]nonan-4-yl)azetidine-3-carboxamide]	≥ 10000 nM	316 nM
272 nM	11.1 nM	51 nM	CC1(NC(=O)C2CN(c3cccc(-c4ccc(F)cc4)c3)C2)CCN2CCC1CC2 (stereo not drawn) [Example 114, 1-(4′-Fluoro-[1,1′-biphenyl]-3-yl)-N-(4-methyl-1-azabicyclo[3.2.2]nonan-4-yl)azetidine-3-carboxamide]	3460 nM	1000 nM
